Data taken from US20250171404A1, “PCNA INHIBITORS AND USES THEREOF” (CITY OF HOPE, priority 2022, published 2025).

Assays:
[1] = Compound metabolism in liver microsome; format: in vitro ADME, human; conditions: compared with AOH1160
Procedure: FIGS. 12A-12E. AOH1996 metabolism and in vivo pharmacokinetics. FIG. 12A: Illustration of AOH1160 degradation by carboxyl esterase-mediated cleavage or by hydroxylation. FIG. 12B: Chromatogram of liver microsome reaction mixtures of AOH1160 and AOH1996. The metabolites shown in FIG. 12A are indicated above their corresponding peaks. FIG. 12C: An aliquot of the liver microsome reaction mixture of AOH1996 was taken after various incubation times in the presence or absence of NADPH as the energy source. AOH1996 concentrations, determined by LC/MS-MS, as a percentage of the input concentration were graphed. FIG. 12D: After oral administration, the plasma concentrations of AOH1996 from three male and three female ES1e/SCID mice at the indicated time points were averaged and graphed ±S.D. The inset contains PK parameters determined by a standard noncompartmental method. FIG. 12E: A similar PK study of AOH1996 was performed in dogs.
Measurement of compound metabolism in liver microsome. AOH1160 analogs were incubated in human liver microsomes in the presence or absence of NADPH at 37° C. An aliquot of the reaction mixture was taken after various incubation times. Compound concentration was determined by liquid chromatography-tandem mass spectrometry (LC-MS/MS) as previously described (Gu et al., 2018).

[2] = system: more than 70 cancer cell lines; experiment: Growth inhibition across cancer cell lines (GI50); format: cell-based; conditions: read-out: median concentration to achieve 50% growth inhibition (GI50); across more than 70 cancer cell lines
SH-SY5Y and SK-N-BE(2)c = experiment: Cell cycle analysis (PI, flow cytometry), cancer cells; format: cell-based, human; conditions: 500 nM
Procedure: (§1) FIGS. 3A-3D. Therapeutic properties of AOH1996. FIG. 3A: Normal cells (7SM0032) or cancer cells (SH-SY5Y and SK-N-BE(2)c) cells were fixed, stained with PI, and analyzed by flow cytometry following treatment with 500 nM AOH1996 for the indicated time. FIG. 3B: SK-N-DZ neuroblastoma cells and nonmalignant 7SM0032 stem cells were incubated with 500 nM AOH1996 for 24 h. Then, after being fixed on slides, cell apoptosis were analyzed by a TUNEL assay. Left: TMR fluorophore attached to the free ends of DNA indicates cells undergoing apoptosis. DAPI stained nuclei also shown. Right: Average abundance ±S.D. of apoptotic 7SM0032 (black histogram) and SK-N-DZ (grey histogram) cells relative to the total number of cells are shown in 5 randomly selected fields. FIG. 3C: Human SK-N-DZ neuroblastoma cells were treated with or without the indicated concentrations of cisplatin in the absence or presence of 500 nM of AOH1996 for 18 hours. […] The relative number of colonies determined in triplicates for each treatment condition were averaged and graphed ±SDs (*, P<0.01). […] Cell growth was measured as the percentage of cell confluence by imaging every 6 h for a total of 48 h.
Cell Cycle Analysis. […] PI fluorescence intensity of the cells was measured by flow cytometry and the data was analyzed using the FlowJo program.

[3] = system: SK-N-DZ neuroblastoma cells; experiment: Clonogenic assay with cisplatin; format: cell-based, human; conditions: 500 nM AOH1996, 18 hours
Procedure: as §1
Clonogenic Assay. […] The colonies were stained with 0.5% crystal violet and counted. Synergy between AOH1996 and cisplatin was evaluated using combination indices (Cl) based on the Bliss independence model [C]=(EA+EB−EA*EB)/EAB] […]

COc1cccc(Oc2ccccc2NC(=O)CNC(=O)c2cccc3ccccc23)c1 [AOH1996, N-(2-((2-(3-methoxyphenoxy)phenyl)amino)-2-oxoethyl)-1-naphthamide]
metabolic stability [1]: metabolically more stable than AOH1160
GI50 [2]: ~300 nM
change in cell-cycle profile (SH-SY5Y and SK-N-BE(2)c): G2/M and/or S phase arrest in cancer cells
sensitivity to cisplatin (colony formation) [3]: increased the sensitivity of cancer cells to genotoxic agents, including cisplatin
